Laboratory results from patent US20240293416A1, “TREATMENT OF LIVER DISORDERS WITH A THR-ß AGONIST” (Terns Pharmaceuticals, Inc., priority 2021, published 2024).
Entries after “also recorded” stand apart in the source; their conditions may differ.

Experiments:
[1] = Pharmacokinetics of 50 mg capsules with or without SLS in beagle dogs; type: in vivo; settings: 50 mg capsule with vs without 5 wt % SLS
BCS classification = type: physicochemical
[2] = Single ascending dose trial: adverse event and safety monitoring; type: in vivo, human
Method: (§1) A single-ascending dose clinical trial of Compound 1 (potassium salt) was performed.

[3] = system: SHBG, LDL-c and other lipid parameters; assay: Multiple ascending doses in healthy subjects with elevated LDL-c: PD markers; type: in vivo, human; settings: 1, 3, 6 or 10 mg once daily for 14 days
From the text: Secondary Objectives: Evaluate the PK and PD of Compound 1 in healthy subjects with elevated LDL-c following multiple ascending doses of Compound 1.

[4] = system: SHBG, Apo B and serum lipids; assay: Single ascending dose trial: serum PD biomarkers; type: in vivo, human; settings: for Apo B Change / SHBG Change: n = 6
Method: as §1
(§2) PK parameters were estimated via noncompartmental methods using Phoenix WinNonlink (Certara, LP, Princeton, NJ). Concentrations of serum pharmacodynamic (PD) biomarkers apolipoprotein B (Apo B) and sex hormone binding globulin (SHBG) were measured using an immunoassay and serum lipids were determined using spectrophotometry.
PD sampling was performed pre-dose, and 48 hours and 72 hours post-dose. Percent change from baseline for PD markers were calculated using an ANCOVA model with percent change from baseline as dependent variable, treatment group as fixed effect, and baseline as covariate. Analyses used observed data only without imputation for missing data.

[5] = Solubilizer compatibility in formulation study; type: physicochemical; settings: co-formulation
From the text: The level of SLS between 1.5% to 5.0% w/w was investigated.

[6] = Multiple ascending dose trial: pharmacokinetics; type: in vivo, human
Method: (§3) A multiple-ascending dose clinical trial of Compound 1 was performed.
as §2, with “(See Table 5, FIG. 7.) PK” for “PK”, “Phoenix® WinNonlin®” for “Phoenix WinNonlink”

[7] = system: SHBG, Apo B and serum lipids; assay: Multiple ascending dose trial: serum PD biomarkers; type: in vivo, human
Method: as §3
as §2, with “(See Table 5, FIG. 7.) PK” for “PK”, “Phoenix® WinNonlin®” for “Phoenix WinNonlink”
PD sampling was also performed. Percent change from baseline for PD markers were calculated using an ANCOVA model with percent change from baseline as dependent variable, treatment group as fixed effect, and baseline as covariate. Analyses used observed data only without imputation for missing data.

[8] = pH effect on PK performance in beagle dogs; type: in vivo; settings: 10 mg capsule, 5% SLS; pentagastrin vs famotidine pre-treatment, n=3 per group
From the text: To determine the pH effect on PK performance, beagle dogs were divided into two groups (n=3 per group).

[9] = system: biopsy-confirmed DIO-NASH mice; assay: DIO-GAN NASH mice: body weight, organ weight, body composition; type: in vivo, C57BL/6JRj mice; settings: doses per Table 16
From the text: C57BL/6JRj male mice (n=138) were fed the Gubra Amylin NASH (GAN) diet (40% fat, 22% fructose, 2% cholesterol [D09100310, Research Diets]) or lean chow diet for 35 weeks before treatment start. Prior to treatment all animals underwent liver biopsy for histological confirmation (steatosis score ≥2 and fibrosis stage ≥1) and stratification using the nonalcoholic fatty liver disease (NAFLD) activity scoring (NAS) and fibrosis staging system. The diet-induced obese mice on GAN diet (DIO-GAN) were randomized to 8 treatment groups (Table 16) based on percent-area of picrosirius red (PSR) staining. […] Vehicle-dosed lean chow-fed controls served as healthy controls (n=10). Mice were maintained on their respective diets (GAN or lean chow) for the duration of the study. Within-subject comparisons (pre-vs. post-treatment) were performed for liver biopsy histopathological scores. Terminal quantitative endpoints included plasma/liver biochemistry, liver histomorphometry, and liver transcriptomic analysis by RNAseq.
The diet-induced obese, Gubra Amylin NASH model (DIO-GAN) recapitulates many of the histopathological features of human NASH (Hansen 2020). […] To induce NASH disease, C57BL/6JRj mice were maintained a on diet high in fat, cholesterol, and fructose (GAN diet) for >35 weeks. Prior to therapeutic intervention, mice were biopsied to assess NASH disease and fibrosis severity; mice with a steatosis score <2 and fibrosis stage <1 were excluded from the study. DIO-GAN mice were then randomized into 8 treatment groups (n=16 per group) based on the percent fractional area of Picrosirius red (PSR) staining of the pre-treatment biopsy as well as body fat tissue mass determined by whole body Echo-magnetic resonance imaging (EchoMRI). […] DIO-GAN mice administered vehicle by oral gavage once daily served as a control. Mice were treated for a total of 12 weeks and were maintained on GAN diet throughout the study. Lean mice (n=10), maintained on normal chow diet throughout the study served as healthy controls.
Body composition was determined at baseline (Week-1) and Week 11 of the study by whole body EchoMRI to determine the relative levels lean and fat tissue as a percentage of body weight. Baseline levels of lean and fat tissue were well balanced across treatment groups (FIGS. 33A and 33B).

[10] = DIO-GAN NASH mice: trough plasma compound levels by LC-MS/MS; type: in vivo, C57BL/6JRj mice; settings: plasma 21-24 hours post final dose
Method: Terminal plasma samples were harvested by cardiac puncture approximately 21-24 hours after the last administration of compound(s). Terminal plasma samples were analyzed by high resolution LC-MS/MS using a Triple Quad 6500+ instrument. 20 μL of plasma sample was mixed with 200 μL of internal standard solution (100 ng/ml Labetalol+100 ng/ml Tolbutamide in acetonitrile), vortexed, and centrifuged at 4,000 rpm for 15 min at 4° C. […] The internal standard (retention time: 0.76 min), was used for quantification of the glucuronide metabolite of Compound 2 (retention time: 0.77 min). Calibration curves (1-3000 ng/mL) were generated in a matrix of mouse plasma (pooled vehicle control) for each analyte.
Terminal plasma samples collected by cardiac puncture 21-24 hours post final treatment dose (i.e., trough) were analyzed by LC-MS/MS. Values represent mean and standard deviation (SD). ND, not determined.

N#Cc1nn(-c2cc(Cl)c(Oc3n[nH]c(=O)c4ccccc34)c(Cl)c2)c(=O)[nH]c1=O [Compound 1, 2-(3,5-dichloro-4-((4-oxo-3,4-dihydrophthalazin-1-yl)oxy)phenyl)-3,5-dioxo-2,3,4,5-tetrahydro-1,2,4-triazine-6-nitrile]
increase of exposure (Cmax, AUC) by formulation with 5 wt % SLS [1]: more than 70% | BCS classification (BCS classification): BCS Class IV | Heart rates ([2]; 24 hours after single dose): remained stable and within the normal range | plasma AUC0-∞ without any significant side effects ([2]; single ascending dose studies): ≤ 50,000 ng*hg/mL | overall safety and tolerability ([2]; single ascending doses up to 60 mg): overall safe and well-tolerated | TSH, free T3, and free T4 levels ([2]; single doses 3-60 mg): remained within the normal range | bilirubin levels above the normal range ([2]; single doses 3-60 mg): no subjects | cardiac biomarkers (troponin I, CK-MB) or other clinical safety tests ([2]; single doses 3-60 mg): no notable changes | cardiac related AEs (e.g., tachycardia, arrythmias) ([2]; single doses 3-60 mg): No cardiac related AEs | increases in ALT more than 2-times ULN ([2]; single doses 3-60 mg): No subjects | severity of adverse events ([2]; single doses 3-60 mg): mild or moderate in severity | vital signs or ECG parameters ([2]; single doses 3-60 mg): no remarkable changes | SHBG [3]: increased | circulating atherogenic lipid levels including LDL-c, Apo B, total cholesterol, and triglycerides [3]: significant decreases | Apo B Change ([4]; Day 3 after single 3 mg dose): −1.5% | SHBG Change ([4]; Day 3 after single 3 mg dose): 0.20 nmol/L | Apo B Change ([4]; Day 3 after single 10 mg dose): −5.6% | SHBG Change ([4]; Day 3 after single 30 mg dose): 6.0 nmol/L | LDL-c, total cholesterol, and Apo-B ([4]; Day 3 following single dose, similar on Day 4): Dose-dependent decreases | triglyceride levels ([4]; after a single dose): No significant changes | SHBG relative to placebo ([4]; single doses of ≥10 mg): Significant increases | compatibility with sodium lauryl sulfate (SLS) [5]: good compatibility; also recorded: minimal or no degradation | effect of ionic surfactants (e.g., SLS) on solubility [5]: increased the aqueous solubility; also recorded: dramatic enhancement of solubility at all pH levels | t1/2 ([6]; Day 14, 6 mg QD, N = 6, median): 15.8 h | oral bioavailability and PK variability ([6]; multiple doses): good oral bioavailability with low PK variability | total cholesterol, LDL-c, Apo B, and triglycerides ([7]; all dose levels): Reductions | HDL-c ([7]; day 15): did not significantly change | total cholesterol, LDL-c, Apo B, and triglycerides ([7]; day 15, 10 mg dose cohort): significant reductions | SHBG ([7]; multiple doses, even at 3 mg QD): significant and dose-dependent increases | pH effect on plasma concentrations [8]: Minimal pH effect

Cn1cc(C(=O)O)c2ccc(C3CCC(OCc4c(-c5c(Cl)cccc5Cl)noc4C4CC4)CC3)cc21 (stereo not shown) [Compound 2]
body weight at the end of study vs DIO-GAN vehicle control ([9]; PO QD 12 weeks): significantly lower | body weight during the study ([9]; PO QD 12 weeks): decreased body weight | fat tissue (% BW, EchoMRI) ([9]; Week 11): reduced levels of fat tissue | relative lean tissue mass (EchoMRI) ([9]; Week 11): significant increases | Mean trough analyte concentration (SD) ([10]; treatment group Combo-high, n = 14): 3.3 (1.8) ng/mL | Mean trough analyte concentration (SD) ([10]; treatment group Combo-med, n = 16): 5.8 (3.5) ng/mL | Mean trough analyte concentration (SD) ([10]; treatment group Compound 2 (10 mg/kg), n = 16): 7.4 (3.8) ng/mL
